Data from patent US7799915B2, “Anilino-pyrimidine analogs” (Wyeth LLC, priority 2004, dated 2010).

System: IκBα in Hela cells treated with TNFα
Experiment: Western Analysis of IκBα
Assay type: cell-based
Settings: Hela cells treated with compounds for 30 min before addition of TNFα (10 μg/ml), harvested after one hour; mouse anti-IκBα antibody
Protocol: Hela cells are plated at 6-well plate for 24 hours and treated with compounds for 30 min before the addition of TNFα (10 μg/ml). After one hour, Hela cells are harvested in MPER reagent (Pierce, Rockford, Ill.) containing 400 mM NaCl. Protein from all samples is quantified by the Bradford method. Cell lysates containing 30 μg of protein are electrophoresed on a 12% SDS-PAGE gel and transferred to a PVDF membrane using a Bio Rad liquid transfer apparatus. The PVDF membrane is incubated in TBST (TBS with 0.1% Tween-20) with 3% milk for 15 minutes before the addition of the first antibody, mouse anti-IκBα (Santa Cruz). After overnight incubation, the PVDF membrane is washed 3 times with TBST and incubated with secondary antibodies coupled with horseradish peroxidase (Transduction Labs) for one hour. The PVDF membrane is then washed 3 times with TBST and protein is detected using an enhanced chemiluminescence detection system (Pierce).

Compound	result in Western analysis of IκBα
NS(=O)(=O)c1ccc(Nc2nccc(-c3ccc(Cl)s3)n2)cc1 [compound 4]	positive result
NS(=O)(=O)c1ccc(Nc2nccc(-c3ccc(C#Cc4ccccn4)s3)n2)cc1 [compound 35]	slightly positive result
O=S(=O)(NCCCO)c1ccc(Nc2nccc(-c3ccc(C(F)(F)F)cc3)n2)cc1 [compound 68]	positive result
COc1ccc(-c2ccnc(Nc3ccc(S(=O)(=O)NCCN(C)C)c(C(F)(F)F)c3)n2)cc1F [compound 167]	slightly positive result
COc1ccc(-c2ccnc(Nc3ccc(S(=O)(=O)NCCCN(C)C)c(Cl)c3)n2)cc1F [compound 173]	positive result
NS(=O)(=O)c1ccc(Nc2nccc(-c3ccc(/C=C/CO)cc3)n2)cc1 [compound 272]	positive result
